From patent US20220177508A1, “C10-Cyclic Substituted 13-Membered Macrolides and Uses Thereof” (Zikani Therapeutics, Inc., priority 2018, published 2022)
Values after ≈ are worked out from the molar mass of the structure shown.

Experiments:
Format in all cases: cell-based
K. pneumoniae MP-546 = experiment: Broth dilution MIC determination (CLSI), K. pneumoniae MP-546; conditions: Klebsiella pneumoniae, MP546; strain MP-546, broth dilution
P. aeruginosa MP-3 = experiment: Broth dilution MIC determination (CLSI), P. aeruginosa MP-3; conditions: Pseudomonas aeruginosa, MP3; strain MP-3, broth dilution
A. baumannii MP-15 = experiment: Broth dilution MIC determination (CLSI), A. baumannii MP-15; conditions: Acinetobacter baumannii, MP15; strain MP-15, broth dilution; read-out: MIC A. baumanii MP-15
E. coli MP-4 = experiment: Broth dilution MIC determination (CLSI), E. coli MP-4; conditions: Escherichia coli, MP4; strain MP-4, broth dilution; read-out: MIC E. coli MP-4
S. aureus MP-12 = experiment: Broth dilution MIC determination (CLSI), S. aureus MP-12; conditions: Staphylococcus aureus, MP12; strain MP-12, broth dilution
K. pneumoniae MP-648 = experiment: Broth dilution MIC determination (CLSI), K. pneumoniae MP-648; conditions: Klebsiella pneumoniae, MP648; strain MP-648, broth dilution

Row | SMILES | MIC (K. pneumoniae MP-546) | MIC (P. aeruginosa MP-3) | MIC (A. baumannii MP-15) | MIC (E. coli MP-4) | MIC (S. aureus MP-12) | MIC (K. pneumoniae MP-648)
1 | CO[C@]1(C)C[C@@H](C)CN(C)[C@H](C2CN(Cc3cnccn3)C2)COC(=O)C(C)(C)C(=O)[C@H](C)[C@H]1O[C@@H]1O[C@H](C)C[C@H](N(C)C)[C@H]1O [Compound 55, (3R,6R,8R,9R,10R)-9-(((2S,3R,4S,6R)-4-(dimethylamino)-3-hydroxy-6-methyltetrahydro-2H-pyran-2-yl)oxy)-8-methoxy-4,6,8,10,12,12-hexamethyl-3-(1-(pyrazin-2-ylmethyl)azetidin-3-yl)-1-oxa-4-azacyclotridecane-11,13-dione] | 4 to 32 µg/mL (≈ 6.17 to 49.4 µM) | > 32 µg/mL | > 32 µg/mL | 4 to 32 µg/mL (≈ 6.17 to 49.4 µM) | 4 to 32 µg/mL (≈ 6.17 to 49.4 µM) | > 32 µg/mL
2 | CO[C@]1(C)C[C@@H](C)CN(C)[C@@H](C2CCN(CC3CC3)CC2)COC(=O)C(C)(C)C(=O)[C@H](C)[C@H]1O[C@@H]1O[C@H](C)C[C@H](N(C)C)[C@H]1O [Compound 108, (3S,6R,8R,9R,10R)-3-(1-(cyclopropylmethyl)piperidin-4-yl)-9-(((2S,3R,4S,6R)-4-(dimethylamino)-3-hydroxy-6-methyltetrahydro-2H-pyran-2-yl)oxy)-8-methoxy-4,6,8,10,12,12-hexamethyl-1-oxa-4-azacyclotridecane-11,13-dione] | < 4 µg/mL | > 32 µg/mL | > 32 µg/mL | < 4 µg/mL | 4 to 32 µg/mL (≈ 6.27 to 50.2 µM) | < 4 µg/mL
3 | CO[C@]1(C)C[C@@H](C)CN(C)[C@@H](C2CCN(C[C@H]3COC(C)(C)O3)CC2)COC(=O)C(C)(C)C(=O)[C@H](C)[C@H]1O[C@@H]1O[C@H](C)C[C@H](N(C)C)[C@H]1O [Compound 86, (3S,6R,8R,9R,10R)-3-(1-(((S)-2,2-dimethyl-1,3-dioxolan-4-yl)methyl)piperidin-4-yl)-9-(((2S,3R,4S,6R)-4-(dimethylamino)-3-hydroxy-6-methyltetrahydro-2H-pyran-2-yl)oxy)-8-methoxy-4,6,8,10,12,12-hexamethyl-1-oxa-4-azacyclotridecane-11,13-dione] | < 4 µg/mL | > 32 µg/mL | > 32 µg/mL | < 4 µg/mL | 4 to 32 µg/mL (≈ 5.73 to 45.8 µM) | 4 to 32 µg/mL (≈ 5.73 to 45.8 µM)
4 | CCN(C)CC(C)(C)CC(=O)N1CC([C@@H]2COC(=O)C(C)(C)C(=O)[C@H](C)[C@@H](O[C@@H]3O[C@H](C)C[C@H](N(C)C)[C@H]3O)[C@](C)(OC)C[C@@H](C)CN2C)C1 [Compound 122, (3R,6R,8R,9R,10R)-9-(((2S,3R,4S,6R)-4-(dimethylamino)-3-hydroxy-6-methyltetrahydro-2H-pyran-2-yl)oxy)-3-(1-(4-(ethyl(methyl)amino)-3,3-dimethylbutanoyl)azetidin-3-yl)-8-methoxy-4,6,8,10,12,12-hexamethyl-1-oxa-4-azacyclotridecane-11,13-dione] | 4 to 32 µg/mL (≈ 5.63 to 45 µM) | > 32 µg/mL | > 32 µg/mL | < 4 µg/mL | 4 to 32 µg/mL (≈ 5.63 to 45 µM) | 4 to 32 µg/mL (≈ 5.63 to 45 µM)
5 | CO[C@]1(C)C[C@@H](C)CN(C)[C@H](C2CN(CC3CCCO3)C2)COC(=O)C(C)(C)C(=O)[C@H](C)[C@H]1O[C@@H]1O[C@H](C)C[C@H](N(C)C)[C@H]1O (stereo partly drawn) [Compound 164, (3R,6R,8R,9R,10R)-9-(((2S,3R,4S,6R)-4-(dimethylamino)-3-hydroxy-6-methyltetrahydro-2H-pyran-2-yl)oxy)-8-methoxy-4,6,8,10,12,12-hexamethyl-3-(1-((tetrahydrofuran-2-yl)methyl)azetidin-3-yl)-1-oxa-4-azacyclotridecane-11,13-dione] | < 4 µg/mL | > 32 µg/mL | > 32 µg/mL | < 4 µg/mL | 4 to 32 µg/mL (≈ 6.25 to 50 µM) | 4 to 32 µg/mL (≈ 6.25 to 50 µM)
6 | CO[C@]1(C)C[C@@H](C)CN(C)[C@@H](C2CCN(C(C)[C@H]3COC(C)(C)O3)CC2)COC(=O)C(C)(C)C(=O)[C@H](C)[C@H]1O[C@@H]1O[C@H](C)C[C@H](N(C)C)[C@H]1O (mixture of isomers) [Compound 172, (3S,6R,8R,9R,10R)-3-(1-(1-((S)-2,2-dimethyl-1,3-dioxolan-4-yl)ethyl)piperidin-4-yl)-9-(((2S,3R,4S,6R)-4-(dimethylamino)-3-hydroxy-6-methyltetrahydro-2H-pyran-2-yl)oxy)-8-methoxy-4,6,8,10,12,12-hexamethyl-1-oxa-4-azacyclotridecane-11,13-dione] | < 4 µg/mL | > 32 µg/mL | > 32 µg/mL | < 4 µg/mL | 4 to 32 µg/mL (≈ 5.62 to 44.9 µM) | < 4 µg/mL
7 | CCCN1C[C@H](C)C[C@@](C)(OC)[C@H](O[C@@H]2O[C@H](C)C[C@H](N(C)C)[C@H]2O)[C@@H](C)C(=O)C(C)(C)C(=O)OC[C@H]1[C@H]1C[C@H](N(C)CC)C1 [Compound 94, (3R,6R,8R,9R,10R)-9-(((2S,3R,4S,6R)-4-(dimethylamino)-3-hydroxy-6-methyltetrahydro-2H-pyran-2-yl)oxy)-3-((1r,3R)-3-(ethyl(methyl)amino)cyclobutyl)-8-methoxy-6,8,10,12,12-pentamethyl-4-propyl-1-oxa-4-azacyclotridecane-11,13-dione] | < 4 µg/mL | > 32 µg/mL | > 32 µg/mL | < 4 µg/mL | 4 to 32 µg/mL (≈ 6.25 to 50 µM) | 4 to 32 µg/mL (≈ 6.25 to 50 µM)
8 | CO[C@]1(C)C[C@@H](C)CN(C)[C@H]([C@H]2C[C@H](N(C)CC(C)C)C2)COC(=O)C(C)(C)C(=O)[C@H](C)[C@H]1O[C@@H]1O[C@H](C)C[C@H](N(C)C)[C@H]1O [Compound 131, (3R,6R,8R,9R,10R)-9-(((2S,3R,4S,6R)-4-(dimethylamino)-3-hydroxy-6-methyltetrahydro-2H-pyran-2-yl)oxy)-3-((1r,3R)-3-(isobutyl(methyl)amino)cyclobutyl)-8-methoxy-4,6,8,10,12,12-hexamethyl-1-oxa-4-azacyclotridecane-11,13-dione] | < 4 µg/mL | > 32 µg/mL | 4 to 32 µg/mL (≈ 6.25 to 50 µM) | < 4 µg/mL | 4 to 32 µg/mL (≈ 6.25 to 50 µM) | < 4 µg/mL
9 | CCN(C)[C@H]1C[C@@H]([C@@H]2COC(=O)C(C)(C)C(=O)[C@H](C)[C@@H](O[C@@H]3O[C@H](C)C[C@H](N(C)C)[C@H]3O)[C@](C)(OC)C[C@@H](C)CN2C)C1 [Compound 165, (3R,6R,8R,9R,10R)-9-(((2S,3R,4S,6R)-4-(dimethylamino)-3-hydroxy-6-methyltetrahydro-2H-pyran-2-yl)oxy)-3-((1s,3S)-3-(ethyl(methyl)amino)cyclobutyl)-8-methoxy-4,6,8,10,12,12-hexamethyl-1-oxa-4-azacyclotridecane-11,13-dione] | 4 to 32 µg/mL (≈ 6.54 to 52.3 µM) | > 32 µg/mL | > 32 µg/mL | < 4 µg/mL | > 32 µg/mL | 4 to 32 µg/mL (≈ 6.54 to 52.3 µM)
10 | CO[C@]1(C)C[C@@H](C)CN(C)[C@@H](C2(CCN(C)CC3CC3)CC2)COC(=O)C(C)(C)C(=O)[C@H](C)[C@H]1O[C@@H]1O[C@H](C)C[C@H](N(C)C)[C@H]1O [Compound 196] | – | > 32 µg/mL | > 32 µg/mL | 4 to 32 µg/mL (≈ 6.14 to 49.1 µM) | > 32 µg/mL | > 32 µg/mL
11 | CO[C@]1(C)C[C@@H](C)CN(C)[C@](C)(C2CCN(C)CC2)COC(=O)C(C)(C)C(=O)[C@H](C)[C@H]1O[C@@H]1O[C@H](C)C[C@H](N(C)C)[C@H]1O [Compound 198] | – | > 32 µg/mL | > 32 µg/mL | > 32 µg/mL | > 32 µg/mL | > 32 µg/mL
12 | CO[C@]1(C)C[C@@H](C)CN(C)[C@@H](C2(CCN(C)C(C)=O)CC2)COC(=O)C(C)(C)C(=O)[C@H](C)[C@H]1O[C@@H]1O[C@H](C)C[C@H](N(C)C)[C@H]1O [Compound 197] | – | > 32 µg/mL | > 32 µg/mL | 4 to 32 µg/mL (≈ 6.25 to 50 µM) | > 32 µg/mL | > 32 µg/mL
13 | CCN1C[C@H](C)C[C@@](C)(OC)[C@H](O[C@@H]2O[C@H](C)C[C@H](N(C)C)[C@H]2O)[C@@H](C)C(=O)C(C)(C)C(=O)OC[C@H]1C1CN(C(=O)CN(C)C)C1 [Compound 38, (3R,6R,8R,9R,10R)-9-(((2S,3R,4S,6R)-4-(dimethylamino)-3-hydroxy-6-methyltetrahydro-2H-pyran-2-yl)oxy)-3-(1-(dimethylglycyl)azetidin-3-yl)-4-ethyl-8-methoxy-6,8,10,12,12-pentamethyl-1-oxa-4-azacyclotridecane-11,13-dione] | 4 to 32 µg/mL (≈ 6.11 to 48.9 µM) | > 32 µg/mL | > 32 µg/mL | < 4 µg/mL | 4 to 32 µg/mL (≈ 6.11 to 48.9 µM) | –

More lines, now with the values ahead:

Row | MIC (K. pneumoniae MP-546) | MIC (P. aeruginosa MP-3) | MIC (A. baumannii MP-15) | MIC (E. coli MP-4) | MIC (S. aureus MP-12) | MIC (K. pneumoniae MP-648) | SMILES
14 | – | > 32 µg/mL | > 32 µg/mL | 4 to 32 µg/mL (≈ 5.82 to 46.6 µM) | 4 to 32 µg/mL (≈ 5.82 to 46.6 µM) | > 32 µg/mL | CO[C@]1(C)C[C@@H](C)CN(C)[C@@H](C2CCN(C[C@H](CO)N(C)C)CC2)CO[C@@H](O)C(C)(C)C(=O)[C@H](C)[C@H]1O[C@@H]1O[C@H](C)C[C@H](N(C)C)[C@H]1O [Compound 200]
15 | – | > 32 µg/mL | > 32 µg/mL | 4 to 32 µg/mL (≈ 6.52 to 52.1 µM) | > 32 µg/mL | > 32 µg/mL | CO[C@]1(C)C[C@@H](C)CN(C)[C@H](C2CN(CC(=O)O)C2)COC(=O)C(C)(C)C(=O)[C@H](C)[C@H]1O[C@@H]1O[C@H](C)C[C@H](N(C)C)[C@H]1O [Compound 203]
16 | – | > 32 µg/mL | > 32 µg/mL | 4 to 32 µg/mL (≈ 5.84 to 46.7 µM) | > 32 µg/mL | > 32 µg/mL | CO[C@]1(C)C[C@@H](C)CN(C)[C@@H](C2CCN(C[C@@H]3COC(=O)N3)CC2)CO[C@@H](O)C(C)(C)C(=O)[C@H](C)[C@H]1O[C@@H]1O[C@H](C)C[C@H](N(C)C)[C@H]1O [Compound 201]
17 | > 32 µg/mL | > 32 µg/mL | > 32 µg/mL | > 32 µg/mL | > 32 µg/mL | – | CO[C@]1(C)C[C@@H](C)CN[C@@H](c2ccccc2)COC(=O)[C@H](C)C(=O)[C@H](C)[C@H]1O[C@@H]1OC(C)CC(N(C)C)C1O (stereo partly drawn) [Compound 205]
18 | – | > 32 µg/mL | > 32 µg/mL | 4 to 32 µg/mL (≈ 5.72 to 45.8 µM) | > 32 µg/mL | > 32 µg/mL | CO[C@]1(C)C[C@@H](C)CN(C)[C@@H](C2CCN(C[C@@H]3COC(=O)N3C)CC2)CO[C@@H](O)C(C)(C)C(=O)[C@H](C)[C@H]1O[C@@H]1O[C@H](C)C[C@H](N(C)C)[C@H]1O [Compound 202]
